Assay results taken from the OligoGym collection.
Values joined by “and” are separate entries in the source; they are usually repeats but may differ in a detail not shown here. Equal values may be shown once. After the bases stand the sugars from the 5' end (letter, count) and the backbone: PS all phosphorothioate, else s phosphorothioate and o phosphodiester by linkage. Methylation of C is not given here. e = 2'-O-(2-methoxyethyl) (MOE); k = constrained ethyl (cEt); d = 2'-deoxy (DNA)

Target: APOL1
Conditions: ASO

Sequence: CGCAATGCTGACTTGG (sugars k2 d4 e4 k2 d4, PS)
- target mRNA inhibition (A431, 2 µM): 68%

Sequence: ATGCTAATTTTCTGAC (sugars k2 d4 e3 k2 d5, PS)
- target mRNA inhibition (A431, 2 µM): 88%

Sequence: AGTTTTGTAAGTGCAA (sugars kkddddkekekkdddd, PS)
- target mRNA inhibition (A431, 2 µM): 84%

Sequence: GGAATTATGGAATTGC (sugars k2 d4 e3 k2 d5, PS)
- target mRNA inhibition (A431, 0.0156 µM): 8%
- target mRNA inhibition (A431, 0.0625 µM): 38%
- target mRNA inhibition (A431, 0.25 µM): 84%
- target mRNA inhibition (A431, 1 µM): 96%
- target mRNA inhibition (A431, 2 µM): 99%

Sequence: ATTCTGTGTGCTCACT (sugars k4 d9 k3, PS)
- target mRNA inhibition (A431, 0.0625 µM): 65%
- target mRNA inhibition (A431, 0.25 µM): 80%
- target mRNA inhibition (A431, 1 µM): 92%

Sequence: AGTATTGTTTTTGTGG (sugars kkkddddkekekdddd, PS)
- target mRNA inhibition (A431, 2 µM): 55%

Sequence: GAACGCAATGCTGACT (sugars kkddddkekekddddd, PS)
- target mRNA inhibition (A431, 2 µM): 78%

Sequence: ACATCATTGGGTTATG (sugars kkddddkekekkdddd, PS)
- target mRNA inhibition (A431, 2 µM): 70%

Sequence: AAGTATTGCCAGCTAA (sugars k3 d5 k3 d5, PS)
- target mRNA inhibition (A431, 2 µM): 90%

Sequence: CTTTATACCAGTGTCT (sugars kddddkekekeddddd, PS)
- target mRNA inhibition (A431, 2 µM): 92%

Sequence: ACGCAATGCTGACTTG (sugars kddddkekekeddddd, PS)
- target mRNA inhibition (A431, 2 µM): 72%

Sequence: TTTTGTAAGTGCAACC (sugars k3 d4 k3 e1 d5, PS)
- target mRNA inhibition (A431, 0.0156 µM): 38%
- target mRNA inhibition (A431, 0.04 µM): 38% and 24%
- target mRNA inhibition (A431, 0.0625 µM): 71%
- target mRNA inhibition (A431, 0.25 µM): 93%
- target mRNA inhibition (A431, 1 µM): 97% and 98% and 94%
- target mRNA inhibition (A431, 2 µM): 98%

Sequence: GTATTTCTTGATGTGG (sugars kkddddekekeddddd, PS)
- target mRNA inhibition (A431, 0.04 µM): 58%
- target mRNA inhibition (A431, 1 µM): 96%
- target mRNA inhibition (A431, 2 µM): 96%

Sequence: CGTCAATATATTCTTT (sugars k2 d4 e3 k2 d5, PS)
- target mRNA inhibition (A431, 2 µM): 81%

Sequence: ATCAGATGGGTACTTC (sugars k3 d4 k3 e1 d5, PS)
- target mRNA inhibition (A431, 2 µM): 88%

Sequence: TCTATTAGAGGGCTAG (sugars k2 d4 e3 k2 d5, PS)
- target mRNA inhibition (A431, 2 µM): 67%

Sequence: ACTGAGGGTATATGAA (sugars k4 d9 k3, PS)
- target mRNA inhibition (A431, 0.0625 µM): 22%
- target mRNA inhibition (A431, 0.25 µM): 40%
- target mRNA inhibition (A431, 1 µM): 58%

Sequence: AGATTGGCTCTGGCTC (sugars kkddddkekekkdddd, PS)
- target mRNA inhibition (A431, 2 µM): 18%

Sequence: GTTATGAAATTATTGG (sugars k2 d4 e3 k2 d5, PS)
- target mRNA inhibition (A431, 2 µM): 54%

Sequence: ATGCTAATTTTCTGAC (sugars kkddddkekekddddd, PS)
- target mRNA inhibition (A431, 0.0156 µM): 25%
- target mRNA inhibition (A431, 0.0625 µM): 59%
- target mRNA inhibition (A431, 0.25 µM): 84%
- target mRNA inhibition (A431, 1 µM): 93%
- target mRNA inhibition (A431, 2 µM): 97%

Sequence: CATTCAGAATTTCCAC (sugars kkddddkdkdkddddd, PS)
- target mRNA inhibition (A431, 2 µM): 84%

Sequence: ATTCTCATGGTACAGG (sugars kdddddkekekddddd, PS)
- target mRNA inhibition (A431, 2 µM): 83%

Sequence: GTTATATTTGATCCTC (sugars kkddddkdkdkddddd, PS)
- target mRNA inhibition (A431, 0.0156 µM): 9%
- target mRNA inhibition (A431, 0.0625 µM): 38%
- target mRNA inhibition (A431, 0.25 µM): 68%
- target mRNA inhibition (A431, 1 µM): 89%
- target mRNA inhibition (A431, 2 µM): 93%

Sequence: TTATGAAATTATTGGT (sugars kkddddkdkdkddddd, PS)
- target mRNA inhibition (A431, 2 µM): 47%

Sequence: GAAGATTGGCTCTGGC (sugars kdddddkekekddddd, PS)
- target mRNA inhibition (A431, 2 µM): 44%

Sequence: GGGAATTATGGAATTG (sugars kkkddddkekeddddd, PS)
- target mRNA inhibition (A431, 2 µM): 63%

Sequence: TTATACCAGTGTCTTC (sugars kkddddkekekkdddd, PS)
- target mRNA inhibition (A431, 2 µM): 68%

Sequence: CTGTTCTAACTCTTGG (sugars k2 d4 e3 k2 d5, PS)
- target mRNA inhibition (A431, 2 µM): 93%

Sequence: AAGTATTGCCAGCTAA (sugars kddddkekekeddddd, PS)
- target mRNA inhibition (A431, 2 µM): 25%

Sequence: GCTTTAAACTCAGGTG (sugars kkddddkdkdkddddd, PS)
- target mRNA inhibition (A431, 0.0156 µM): 25%
- target mRNA inhibition (A431, 0.0625 µM): 63%
- target mRNA inhibition (A431, 0.25 µM): 83%
- target mRNA inhibition (A431, 1 µM): 94%
- target mRNA inhibition (A431, 2 µM): 96%

Sequence: GGAATTATGGAATTGC (sugars kkddddkekekkdddd, PS)
- target mRNA inhibition (A431, 2 µM): 74%

Sequence: ATTCTATTAGAGGGCT (sugars kdddddkekekddddd, PS)
- target mRNA inhibition (A431, 2 µM): 45%

Sequence: TTCAGAATTTCCACTA (sugars kddddkekekeddddd, PS)
- target mRNA inhibition (A431, 2 µM): 62%

Sequence: AATTCTATTAGAGGGC (sugars kkkddddkekeddddd, PS)
- target mRNA inhibition (A431, 2 µM): 82%

Sequence: AGTCATTAGTGCTATA (sugars k4 d9 k3, PS)
- target mRNA inhibition (A431, 0.0625 µM): 57%
- target mRNA inhibition (A431, 0.25 µM): 78%
- target mRNA inhibition (A431, 1 µM): 88%

Sequence: GGAATTATGGAATTGC (sugars kddddkekekeddddd, PS)
- target mRNA inhibition (A431, 2 µM): 88%

Sequence: AAGTATTGCCAGCTAA (sugars kkddddkekekkdddd, PS)
- target mRNA inhibition (A431, 2 µM): 27%

Sequence: TCCTTATGCTTACTCC (sugars k4 d9 k3, PS)
- target mRNA inhibition (A431, 0.0625 µM): 50%
- target mRNA inhibition (A431, 0.25 µM): 80%
- target mRNA inhibition (A431, 1 µM): 93%

Sequence: TGTAAGTGCAACCAAT (sugars kddddkekekeddddd, PS)
- target mRNA inhibition (A431, 2 µM): 67%

Sequence: GTTCAAAAGCAGCATT (sugars k4 d9 k3, PS)
- target mRNA inhibition (A431, 0.04 µM): 15% and 11%

Sequence: CGTCAATATATTCTTT (sugars kekddddeekkddddd, PS)
- target mRNA inhibition (A431, 2 µM): 93%

Sequence: GTTCAAAAGCAGCATT (sugars kkddddkekekkdddd, PS)
- target mRNA inhibition (A431, 2 µM): 34%

Sequence: GCTTTAAACTCAGGTG (sugars kddddkekekeddddd, PS)
- target mRNA inhibition (A431, 2 µM): 67%

Sequence: CATTCAGAATTTCCAC (sugars kkkddddkdkdkdddd, PS)
- target mRNA inhibition (A431, 2 µM): 88%

Sequence: GATGGGTACTTCTGTT (sugars k4 d9 k3, PS)
- target mRNA inhibition (A431, 0.0625 µM): 63%
- target mRNA inhibition (A431, 0.25 µM): 82%
- target mRNA inhibition (A431, 1 µM): 90%

Sequence: TGGTTCAAAAGCAGCA (sugars k4 d9 k3, PS)
- target mRNA inhibition (A431, 0.0625 µM): 60%
- target mRNA inhibition (A431, 0.25 µM): 84%
- target mRNA inhibition (A431, 1 µM): 94%

Sequence: TCAGATGGGTACTTCT (sugars kkddddkekekddddd, PS)
- target mRNA inhibition (A431, 2 µM): 82%

Sequence: TTTGGGTCAAAAGCGA (sugars k4 d9 k3, PS)
- target mRNA inhibition (A431, 0.25 µM): 66% and 85%
- target mRNA inhibition (A431, 1 µM): 83% and 93%

Sequence: ATTCAGAATTTCCACT (sugars k2 d4 e3 k2 d5, PS)
- target mRNA inhibition (A431, 2 µM): 77%

Sequence: ATTCTATTAGAGGGCT (sugars kkddddkekekkdddd, PS)
- target mRNA inhibition (A431, 2 µM): 34%

Sequence: AAGTATTGCCAGCTAA (sugars kkkddddkekekdddd, PS)
- target mRNA inhibition (A431, 2 µM): 47%

Sequence: GTTATGAAATTATTGG (sugars k3 d4 k3 e1 d5, PS)
- target mRNA inhibition (A431, 0.0156 µM): 21%
- target mRNA inhibition (A431, 0.0625 µM): 56%
- target mRNA inhibition (A431, 0.25 µM): 85%
- target mRNA inhibition (A431, 1 µM): 93%
- target mRNA inhibition (A431, 2 µM): 96%

Sequence: ATTCTCATGGTACAGG (sugars kkddddkdkdkddddd, PS)
- target mRNA inhibition (A431, 2 µM): 84%

Sequence: CACCTGTTCACCGCTT (sugars k4 d9 k3, PS)
- target mRNA inhibition (A431, 0.0625 µM): 41%
- target mRNA inhibition (A431, 0.25 µM): 67%
- target mRNA inhibition (A431, 1 µM): 87%

Sequence: TTATTCTCATGGTACA (sugars k2 d4 e3 k2 d5, PS)
- target mRNA inhibition (A431, 2 µM): 48%

Sequence: ATCAGATGGGTACTTC (sugars k4 d9 k3, PS)
- target mRNA inhibition (A431, 0.0625 µM): 53%
- target mRNA inhibition (A431, 0.25 µM): 78%
- target mRNA inhibition (A431, 1 µM): 89%

Sequence: TGGGAATTATGGAATT (sugars k2 d4 e3 k2 d5, PS)
- target mRNA inhibition (A431, 2 µM): 63%

Sequence: GTATTGTTTTTGTGGG (sugars kdddddkekekddddd, PS)
- target mRNA inhibition (A431, 2 µM): 77%

Sequence: CAGTTTTGTAAGTGCA (sugars kkddddekekeddddd, PS)
- target mRNA inhibition (A431, 2 µM): 91%

Sequence: AGATTGGCTCTGGCTC (sugars kdddddkekekddddd, PS)
- target mRNA inhibition (A431, 2 µM): 40%
